# Results reported in ChEMBL document CHEMBL5543097, “Synthesis and structure-activity relationships of novel 14-membered 2-fluoro ketolides with structural modification at the C11 position” (Eur J Med Chem, 2024).
# Legend:
# [1] = tested on: Staphylococcus epidermidis; experiment: Antibacterial activity against erythromycin-resistant Staphylococcus epidermidis 19-4 assessed as inhibition of visible bacterial growth incubated for 18 hrs by broth microdilution method; format: functional
# [2] = tested on: Moraxella catarrhalis; experiment: Antibacterial activity against Moraxella catarrhalis BCA 19-6 assessed as inhibition of bacterial growth incubated for 24 hrs by CLSI based broth microdilution method; format: functional; settings: Moraxella catarrhalis, BCA 19-6, 24 h, read-out: MIC
# [3] = tested on: Staphylococcus epidermidis; experiment: Antibacterial activity against erythromycin-resistant Staphylococcus epidermidis 19-5 assessed as inhibition of visible bacterial growth incubated for 18 hrs by broth microdilution method; format: functional
# [4] = tested on: Streptococcus pneumoniae; experiment: Antibacterial activity against erythromycin-resistant Streptococcus pneumoniae SPN19-14 assessed as inhibition of visible bacterial growth incubated for 18 hrs by broth microdilution method; format: functional
# [5] = tested on: Streptococcus pneumoniae; experiment: Antibacterial activity against erythromycin-resistant Streptococcus pneumoniae SPN19-8 assessed as inhibition of visible bacterial growth incubated for 18 hrs by broth microdilution method; format: functional
# [6] = tested on: Staphylococcus epidermidis; experiment: Antibacterial activity against erythromycin-resistant Staphylococcus epidermidis 19-9 assessed as inhibition of visible bacterial growth incubated for 18 hrs by broth microdilution method; format: functional
# [7] = tested on: Haemophilus influenzae; experiment: Antibacterial activity against Haemophilus influenzae HIN 20-18 assessed as inhibition of bacterial growth incubated for 20 to 24 hrs by CLSI based broth microdilution method; format: functional; settings: time 20-24 hrs
# [8] = tested on: Streptococcus pneumoniae; experiment: Antibacterial activity against erythromycin-resistant Streptococcus pneumoniae SPN19-13 assessed as inhibition of visible bacterial growth incubated for 18 hrs by broth microdilution method; format: functional
# [9] = Metabolic stability in human liver microsome assessed as intrinsic clearance measured at 60 mins by LC-MS/MS analysis; format: ADME; settings: liver microsomes, read-out: CLH
# [10] = tested on: Moraxella catarrhalis; experiment: Antibacterial activity against Moraxella catarrhalis BCA 19-31 assessed as inhibition of bacterial growth incubated for 24 hrs by CLSI based broth microdilution method; format: functional; settings: BCA 19-31, 24 h
# [11] = Metabolic stability in human liver microsome assessed as parent compound remaining in absence of NADPH measured at 60 mins by LC-MS/MS analysis; format: ADME; settings: liver microsomes, read-out: Stability
# [12] = tested on: Staphylococcus epidermidis; experiment: Antibacterial activity against erythromycin-resistant Staphylococcus epidermidis 19-8 assessed as inhibition of visible bacterial growth incubated for 18 hrs by broth microdilution method; format: functional
# [13] = Cytotoxicity against mouse AML12 cells assessed as reduction in cell viability incubated for 48 hrs by MTT assay; format: toxicity, cell-based
# [14] = tested on: Streptococcus agalactiae; experiment: Antibacterial activity against erythromycin-resistant Streptococcus agalactiae 19-9 assessed as inhibition of visible bacterial growth incubated for 18 hrs by broth microdilution method; format: functional
# [15] = tested on: Staphylococcus epidermidis; experiment: Antibacterial activity against erythromycin-resistant Staphylococcus epidermidis 19-11 assessed as inhibition of visible bacterial growth incubated for 18 hrs by broth microdilution method; format: functional
# [16] = Metabolic stability in human liver microsome assessed as parent compound remaining in presence of NADPH measured at 60 mins by LC-MS/MS analysis; format: ADME; settings: liver microsomes, read-out: Stability
# [17] = tested on: Haemophilus influenzae; experiment: Antibacterial activity against Haemophilus influenzae HIN 19-18 assessed as inhibition of bacterial growth incubated for 20 to 24 hrs by CLSI based broth microdilution method; format: functional; settings: HIN 19-18, time 20-24 hrs
# [18] = tested on: Staphylococcus epidermidis; experiment: Antibacterial activity against erythromycin-resistant Staphylococcus epidermidis 19-6 assessed as inhibition of visible bacterial growth incubated for 18 hrs by broth microdilution method; format: functional
# [19] = tested on: Streptococcus pyogenes; experiment: Antibacterial activity against erythromycin-resistant Streptococcus pyogenes ATCC 19615 assessed as inhibition of visible bacterial growth incubated for 18 hrs by broth microdilution method; format: functional
# [20] = tested on: Moraxella catarrhalis; experiment: Antibacterial activity against Moraxella catarrhalis BCA 19-5 assessed as inhibition of bacterial growth incubated for 24 hrs by CLSI based broth microdilution method; format: functional
# [21] = Metabolic stability in human liver microsome assessed as half life measured at 60 mins by LC-MS/MS analysis; format: ADME; settings: liver microsomes
# [22] = tested on: Haemophilus influenzae; experiment: Antibacterial activity against Haemophilus influenzae HIN 19-15 assessed as inhibition of bacterial growth incubated for 20 to 24 hrs by CLSI based broth microdilution method; format: functional; settings: time 20-24 hrs
# [23] = tested on: Streptococcus pneumoniae; experiment: Potency index, ratio of telithromycin MIC to test compound MIC for antibacterial activity against Streptococcus pneumoniae SPN19-13 assessed as inhibition of visible bacterial growth incubated for 18 hrs by broth microdilution method; format: functional
# [24] = tested on: Staphylococcus epidermidis; experiment: Potency index, ratio of telithromycin MIC to test compound MIC for antibacterial activity against erythromycin-resistant Staphylococcus epidermidis 19-8 assessed as inhibition of visible bacterial growth incubated for 18 hrs by broth microdilution method; format: functional
# [25] = tested on: Staphylococcus epidermidis; experiment: Potency index, ratio of telithromycin MIC to test compound MIC for antibacterial activity against erythromycin-resistant Staphylococcus epidermidis 19-6 assessed as inhibition of visible bacterial growth incubated for 18 hrs by broth microdilution method; format: functional
# [26] = tested on: Staphylococcus epidermidis; experiment: Potency index, ratio of telithromycin MIC to test compound MIC for antibacterial activity against erythromycin-resistant Staphylococcus epidermidis 19-4 assessed as inhibition of visible bacterial growth incubated for 18 hrs by broth microdilution method; format: functional
# [27] = tested on: Streptococcus pneumoniae; experiment: Potency index, ratio of telithromycin MIC to test compound MIC for antibacterial activity against Streptococcus pneumoniae SPN19-8 assessed as inhibition of visible bacterial growth incubated for 18 hrs by broth microdilution method; format: functional
# [28] = tested on: Streptococcus pneumoniae; experiment: Potency index, ratio of telithromycin MIC to test compound MIC for antibacterial activity against Streptococcus pneumoniae SPN19-14 assessed as inhibition of visible bacterial growth incubated for 18 hrs by broth microdilution method; format: functional
# [29] = tested on: Staphylococcus epidermidis; experiment: Potency index, ratio of telithromycin MIC to test compound MIC for antibacterial activity against erythromycin-resistant Staphylococcus epidermidis 19-11 assessed as inhibition of visible bacterial growth incubated for 18 hrs by broth microdilution method; format: functional
# [30] = tested on: Staphylococcus epidermidis; experiment: Potency index, ratio of telithromycin MIC to test compound MIC for antibacterial activity against erythromycin-resistant Staphylococcus epidermidis 19-5 assessed as inhibition of visible bacterial growth incubated for 18 hrs by broth microdilution method; format: functional
# [31] = tested on: Staphylococcus epidermidis; experiment: Potency index, ratio of telithromycin MIC to test compound MIC for antibacterial activity against erythromycin-resistant Staphylococcus epidermidis 19-9 assessed as inhibition of visible bacterial growth incubated for 18 hrs by broth microdilution method; format: functional
# [32] = tested on: Streptococcus agalactiae; experiment: Antibacterial activity against erythromycin-resistant Streptococcus agalactiae 19-8 assessed as inhibition of visible bacterial growth incubated for 18 hrs by broth microdilution method; format: functional
# [33] = Moraxella catarrhalis, BCA 19-5, 24 h, read-out: MIC
Compound,MIC [1],MIC [2],MIC [3],MIC [4],MIC [5],MIC [6],MIC [8],microsomal CLint [9],MIC [10],remaining at 1 h [11],MIC [12],CC50 at 48 h [13],MIC [14],MIC [15],remaining at 1 h [16],MIC [17],MIC [18],MIC [19],"MIC [20, 33]",MIC [22],other results
CC[C@H]1OC(=O)[C@@](C)(F)C(=O)[C@H](C)[C@@H](O[C@@H]2O[C@H](C)C[C@H](N(C)C)[C@H]2O)[C@](C)(OC)C[C@@H](C)C(=O)[C@H](C)[C@H]2N(CCCOC(=O)Nc3ccccc3C)C(=O)O[C@]12C,0.06 µg/mL,0.125 µg/mL,< 0.03 µg/mL,0.125 µg/mL,0.125 µg/mL,0.25 µg/mL,0.125 µg/mL,4 µL/min/mg,0.05 µg/mL,101%,0.06 µg/mL,> 100 µM,0.5 µg/mL,< 0.03 µg/mL,73.3%,2 µg/mL,0.125 µg/mL,< 0.03 µg/mL,0.125 µg/mL,4 µg/mL,MIC [7]: 16 µg/mL; half-life [21]: 2.93 h
CC[C@H]1OC(=O)[C@@](C)(F)C(=O)[C@H](C)[C@@H](O[C@@H]2O[C@H](C)C[C@H](N(C)C)[C@H]2O)[C@](C)(OC)C[C@@H](C)C(=O)[C@H](C)[C@H]2N(CCCOC(=O)Nc3ccc4sccc4c3)C(=O)O[C@]12C,0.03 µg/mL,,< 0.03 µg/mL,0.03 µg/mL,0.06 µg/mL,1 µg/mL,< 0.03 µg/mL,,,,0.06 µg/mL,11.6 µM,0.25 µg/mL,< 0.03 µg/mL,,,0.06 µg/mL,< 0.03 µg/mL,,,Ratio [23]: <4; Ratio [24]: 4; Ratio [25]: 4; Ratio [26]: 4; Ratio [27]: <4; Ratio [28]: <4; Ratio [29]: 4; Ratio [30]: 4; Ratio [31]: 4
CC[C@H]1OC(=O)[C@@](C)(F)C(=O)[C@H](C)[C@@H](O[C@@H]2O[C@H](C)C[C@H](N(C)C)[C@H]2O)[C@](C)(OC)C[C@@H](C)C(=O)[C@H](C)[C@H]2N(CCCOC(=O)Nc3cccc(C)c3)C(=O)O[C@]12C,< 0.03 µg/mL,< 0.03 µg/mL,< 0.03 µg/mL,< 0.03 µg/mL,0.125 µg/mL,0.06 µg/mL,< 0.03 µg/mL,266 µL/min/mg,< 0.03 µg/mL,97.5%,< 0.03 µg/mL,76.8 µM,0.06 µg/mL,< 0.03 µg/mL,1.2%,8 µg/mL,0.03 µg/mL,< 0.03 µg/mL,< 0.03 µg/mL,8 µg/mL,half-life [21]: 0.0867 h; MIC [32]: < 0.03 µg/mL
CC[C@H]1OC(=O)[C@@](C)(F)C(=O)[C@H](C)[C@@H](O[C@@H]2O[C@H](C)C[C@H](N(C)C)[C@H]2O)[C@](C)(OC)C[C@@H](C)C(=O)[C@H](C)[C@H]2N(CCCOC(=O)Nc3ccc(C)cc3)C(=O)O[C@]12C,< 0.03 µg/mL,,< 0.03 µg/mL,< 0.03 µg/mL,0.06 µg/mL,0.125 µg/mL,< 0.03 µg/mL,,,,< 0.03 µg/mL,83.2 µM,0.25 µg/mL,< 0.03 µg/mL,,8 µg/mL,< 0.03 µg/mL,< 0.03 µg/mL,0.03 µg/mL,8 µg/mL,Ratio [23]: <4; Ratio [27]: <4; Ratio [28]: <4; MIC ([20]; 24 h): <0.03 µg/mL; MIC [32]: < 0.03 µg/mL
